Some targets named below: DRB1*0802 (Homo sapiens, UniProt P01903+P01911, A100R/A103L/A169T/F76Y/H45Y/I96F/K41T/L162R/M171V/P40S/Q125H/Q178H/Q39Y/Q99D/R218S/R42G/S66Y/V115G/W38E); DRB1*0301 (Homo sapiens, UniProt P01903+P01911, A100K/A102G/A103R/A169T/F55Y/I96L/K41T/L162R/M171V/P40S/Q125H/Q178H/Q39Y/R42S/S66N/T106N/T262R/W38E/Y61H); DRB1*0101 (Homo sapiens, UniProt P01903+P01911, A100R/D57E/F55L/F60I/F76Y/I96L/L162R/M171V/P40L/Q125E/R42F/V115G/Y59C); DRB3*0101 (Homo sapiens, UniProt P01903+P79483); DRB4*0101 (Homo sapiens, UniProt P01903+P13762, G164S); DRB1*1501 (Homo sapiens, UniProt P01903+P01911); DRB1*0401 (Homo sapiens, UniProt P01903+P01911, A100K/A169T/F76Y/I96L/K127E/L162R/M171V/N62H/P40V/Q125Y/R42H/S133A/S149N/S66Y/V115G/V209L/W38E); DRB1*0405 (Homo sapiens, UniProt P01903+P01911, A100R/A169T/D86S/F76Y/I96L/K127E/L162R/M171V/N62H/P40V/Q125Y/R42H/S133A/S149N/S66Y/V115G/V209L/W38E); DRB1*0701 (Homo sapiens, UniProt P01903+P01911, A100R/A102G/A103Q/D57E/D86V/E43K/F76Y/K127E/L162R/M171V/P40G/Q125H/Q99D/R33Q/R42Y/R54Q/S133A/S66F/T210M/V115G/Y107V/Y59L/Y89S); DRB5*0101 (Homo sapiens, UniProt P01903+Q30154); DRB1*1302 (Homo sapiens, UniProt P01903+P01911, A100E/A169T/K41T/L162R/M171V/P40S/Q125H/Q178H/Q39Y/Q99D/R42S/S66N/T262R/V115G/W38E/Y61H); DRB1*0901 (Homo sapiens, UniProt P01903+P01911, A100R/A103E/D57H/D86V/F55Y/F60I/F76Y/I96F/K127E/L162R/M171V/P40D/Q125H/Q99R/R33Q/R42F/S133A/S66N/T210M/V115G/W38K/Y107V/Y59G/Y89S); DRB1*0404 (Homo sapiens, UniProt P01903+P01911, A100R/A169T/F76Y/I96L/K127E/L162R/M171V/N62H/P40V/Q125Y/R42H/S133A/S149N/S66Y/V209L/W38E); DRB1*1101 (Homo sapiens, UniProt P01903+P01911, A100R/A169T/A87E/I96F/K41T/L162R/M171V/P40S/Q125H/Q178H/Q39Y/Q99D/R42S/S66Y/T262R/V115G/W38E).

Holding throughout (assay): biochemical
Common to all, as to format: binding

The mark [1] stands for this setting: competitive inhibition of radiolabeled standard peptide, '-' distinct from ND, read-out: Binding Affinity (nM) DRB1*1302.
Where [2] appears, read: competitive inhibition of radiolabeled standard peptide, '-' distinct from ND, read-out: Binding Affinity (nM) DRB1*0901.
The mark [3] stands for this setting: competitive inhibition of radiolabeled standard peptide, DRB1*1302, read-out: Binding Affinity (nM) DRB1*1302.
The mark [4] stands for this setting: competitive inhibition of radiolabeled standard peptide, DRB1*0901, read-out: Binding Affinity (nM) DRB1*0901.

From paper PMC3794980, “Identification of Conserved and HLA Promiscuous DENV3 T-Cell Epitopes” (PLoS Neglected Tropical Diseases, 2013) come the findings set out here.

Like-named read-outs stand apart in the source and are kept apart here.

DRB1*1302, sequence (P01903 26-254 limits assumed, other chains not shown): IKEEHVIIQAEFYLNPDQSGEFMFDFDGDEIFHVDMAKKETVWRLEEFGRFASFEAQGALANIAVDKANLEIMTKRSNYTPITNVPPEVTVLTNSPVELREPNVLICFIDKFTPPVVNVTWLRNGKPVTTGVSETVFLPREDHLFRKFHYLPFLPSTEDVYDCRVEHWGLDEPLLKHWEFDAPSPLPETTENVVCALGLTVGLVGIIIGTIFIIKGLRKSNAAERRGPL
DRB1*0301, sequence (P01903 26-254, other chains not shown): as the sequence (P01903 26-254 limits assumed, other chains not shown) above
DRB1*1101, sequence (P01903 26-254, other chains not shown): as the sequence (P01903 26-254 limits assumed, other chains not shown) above

Consider `CC(C)C[C@H](NC(=O)[C@H](CCC(=O)O)NC(=O)[C@H](CCCCN)NC(=O)[C@@H](N)CCCNC(=N)N)C(=O)N[C@@H](CC(C)C)C(=O)N[C@H](C(=O)N[C@H](C(=O)N[C@@H](Cc1ccccc1)C(=O)N[C@@H](CCCCN)C(=O)N[C@@H](CC(N)=O)C(=O)N[C@@H](C)C(=O)N[C@@H](Cc1c[nH]cn1)C(=O)N[C@@H](C)C(=O)N[C@@H](CCCCN)C(=O)N[C@@H](CCCCN)C(=O)O)[C@@H](C)O)C(C)C` [Envelope 231-245], for which the IC50 at DRB1*0802 was 0.0072 µM; at DRB1*0301 it was 2.32 µM; against DRB1*0101, 0.0051 µM; against DRB3*0101, 16.5 µM; on DRB4*0101 it was 0.057 µM; against DRB1*1501 it was 0.0052 µM. Also, the IC50 on DRB1*0401 worked out at 0.0035 µM; at DRB1*0405, 0.031 µM; at DRB1*0701 it was 3.78 µM; at DRB5*0101, 0.025 µM; at DRB1*1302, 17200 nM; at DRB1*0901, 48 nM. The same compound registered an IC50 at DRB1*0404 of 1.59 µM.
For `CC[C@H](C)[C@H](NC(=O)[C@H](CC(=O)O)NC(=O)CNC(=O)[C@@H](NC(=O)[C@@H](NC(=O)[C@@H](NC(=O)[C@@H](NC(=O)[C@H](CC(C)C)NC(=O)[C@@H](N)CCCCN)[C@@H](C)O)C(C)C)C(C)C)C(C)C)C(=O)N[C@H](C(=O)NCC(=O)N[C@H](C(=O)N[C@@H](CC(C)C)C(=O)N[C@@H](CCC(=O)O)C(=O)N[C@@H](CCC(N)=O)C(=O)O)C(C)C)[C@@H](C)CC` [NS1 85-99], the IC50 amounted to 0.533 µM at DRB1*0301; 1.68 µM against DRB3*0101; 0.22 µM at DRB4*0101; 0.021 µM on DRB1*1501; 0.088 µM at DRB1*0401; 1.4 µM at DRB1*0405. Also, the IC50 turned out to be 0.07 µM at DRB1*0701; 0.807 µM on DRB1*1101; 0.077 µM at DRB5*0101; 483 nM at DRB1*1302 (setting [1]); 42 nM at DRB1*0901 (setting [2]); 2.66 µM against DRB1*0404.
On to `CSCC[C@H](NC(=O)[C@H](CC(C)C)NC(=O)[C@H](CCCNC(=N)N)NC(=O)[C@H](Cc1c[nH]cn1)NC(=O)[C@H](CC(=O)O)NC(=O)[C@H](CS)NC(=O)[C@H](CC(C)C)NC(=O)[C@H](CCC(N)=O)NC(=O)[C@@H](NC(=O)[C@H](Cc1ccc(O)cc1)NC(=O)[C@@H](NC(=O)[C@@H](N)CCC(=O)O)C(C)C)[C@@H](C)O)C(=O)N[C@@H](CO)C(=O)N[C@@H](C)C(=O)N[C@@H](C)C(=O)O` [NS1 173-187], for which the IC50 on DRB1*0802 turned out to be 0.9 µM; against DRB1*0301 it was 0.787 µM; on DRB1*0101, 0.026 µM; against DRB3*0101, 0.057 µM; against DRB4*0101, 6.15 µM; on DRB1*1501, 1.04 µM. Also, the IC50 stood at 0.502 µM against DRB1*0401; 1.45 µM on DRB1*0405; 1.66 µM against DRB1*0701; 0.753 µM against DRB5*0101; 4600 nM on DRB1*1302 (setting [1]); 608 nM at DRB1*0901 (setting [2]). The compound further yielded an IC50 against DRB1*0404 of 1.29 µM.
With `CC[C@H](C)[C@H](NC(=O)[C@H](CC(C)C)NC(=O)[C@H](CC(N)=O)NC(=O)[C@H](Cc1ccc(O)cc1)NC(=O)[C@H](CC(N)=O)NC(=O)[C@@H]1CCCN1)C(=O)N[C@H](C(=O)N[C@@H](CCSC)C(=O)N[C@@H](CC(=O)O)C(=O)N[C@@H](CCC(=O)O)C(=O)N[C@@H](C)C(=O)N[C@@H](Cc1c[nH]cn1)C(=O)N[C@@H](Cc1ccccc1)C(=O)N[C@H](C(=O)N[C@@H](CC(=O)O)C(=O)O)[C@@H](C)O)[C@@H](C)CC` [NS3 277-291], the IC50 against DRB1*0802 worked out at 0.396 µM; on DRB1*0301, 0.037 µM; at DRB3*0101, 0.0044 µM; at DRB4*0101, 0.208 µM; against DRB1*1501, 1.32 µM; against DRB1*0405 it was 0.402 µM. The IC50 at DRB1*0701 was 2.7 µM; at DRB1*1101, 4.61 µM; against DRB5*0101, 7.13 µM; on DRB1*1302 (setting [1]), 68 nM; on DRB1*0901 (setting [2]), 2600 nM; on DRB1*0404 it was 1.53 µM.
As to `CC[C@H](C)[C@H](NC(=O)[C@@H](N)CCCCN)C(=O)N1CCC[C@H]1C(=O)NCC(=O)NCC(=O)N[C@@H](C)C(=O)N[C@@H](CCSC)C(=O)N[C@@H](Cc1ccc(O)cc1)C(=O)N[C@@H](C)C(=O)N[C@@H](CC(=O)O)C(=O)N[C@@H](CC(=O)O)C(=O)N[C@H](C(=O)N[C@@H](C)C(=O)NCC(=O)N[C@@H](Cc1c[nH]c2ccccc12)C(=O)N[C@@H](CC(=O)O)C(=O)N[C@H](C(=O)O)[C@@H](C)O)[C@@H](C)O` [NS5 523-539], the IC50 came to 1.16 µM at DRB1*0802; 0.0093 µM against DRB1*0301; 0.733 µM at DRB1*0101; 0.045 µM at DRB3*0101; 0.445 µM on DRB4*0101; 15.1 µM against DRB1*1501. The IC50 against DRB1*0401 worked out at 0.0073 µM; at DRB1*0405, 3.17 µM; against DRB1*0701 it was 6.56 µM; on DRB5*0101 it was 4.12 µM; at DRB1*1302 (setting [3]) it was 1430 nM; on DRB1*0901 (setting [4]) it was 13200 nM. The IC50 against DRB1*0404 came to 3.13 µM.
In the case of `CC[C@H](C)[C@H](NC(=O)[C@H](C)NC(=O)[C@H](CC(N)=O)NC(=O)[C@H](C)NC(=O)[C@H](CC(C)C)NC(=O)[C@H](CCC(N)=O)NC(=O)[C@H](CCCNC(=N)N)NC(=O)[C@H](Cc1c[nH]cn1)NC(=O)[C@H](CCC(=O)O)NC(=O)[C@@H]1CCCN1)C(=O)N[C@@H](Cc1ccccc1)C(=O)N[C@@H](CCCCN)C(=O)N[C@@H](CC(C)C)C(=O)N[C@H](C(=O)N[C@@H](Cc1ccc(O)cc1)C(=O)N[C@@H](CCC(N)=O)C(=O)N[C@@H](CC(N)=O)C(=O)O)[C@@H](C)O` [NS5 558-574], the IC50 on DRB1*0802 is 0.539 µM; at DRB1*0301, 0.586 µM; against DRB1*0101, 0.489 µM; on DRB3*0101 it was 1.08 µM; at DRB1*1501, 0.401 µM; against DRB1*0401, 2.82 µM. Besides, the IC50 at DRB1*0405 was 0.667 µM; against DRB1*0701, 0.134 µM; against DRB5*0101, 0.391 µM; at DRB1*1302 (setting [3]) it was 1400 nM; on DRB1*0901 (setting [4]) it was 1930 nM; against DRB1*0404, 2.65 µM.
With `CC[C@H](C)[C@H](NC(=O)[C@H](C)NC(=O)[C@H](CC(N)=O)NC(=O)[C@H](C)N)C(=O)N[C@@H](Cc1ccccc1)C(=O)N[C@@H](CCCCN)C(=O)N[C@@H](CC(C)C)C(=O)N[C@H](C(=O)N[C@@H](Cc1ccc(O)cc1)C(=O)N[C@@H](CCC(N)=O)C(=O)N[C@@H](CC(N)=O)C(=O)N[C@@H](CCCCN)C(=O)N[C@H](C(=O)N[C@H](C(=O)N[C@@H](CCCCN)C(=O)N[C@H](C(=O)N[C@@H](CCC(N)=O)C(=O)O)C(C)C)C(C)C)C(C)C)[C@@H](C)O` [NS5 564-580], the IC50 on DRB1*0802 was determined as 2.6 µM; against DRB1*0301 it was 0.222 µM; against DRB1*0101 it was 0.019 µM; against DRB3*0101, 0.576 µM; on DRB1*1501, 0.028 µM; on DRB1*0401, 0.39 µM. The IC50 against DRB1*0405 is 1.68 µM; on DRB1*0701 it was 0.025 µM; against DRB5*0101, 0.305 µM; against DRB1*1302, 11 nM; against DRB1*0901 it was 100 nM; against DRB1*0404, 4.81 µM.
